Reference: patent publication US7572913B2, “4-substituted piperidine derivatives” (Bioaxone Therapeutique Inc., priority 2004, dated 2009)
Where “and” joins values, the source holds several entries; their conditions need not be identical. Identical values can stand only once. Like-named read-outs stand apart in the source and are kept apart here.

Experiments:
ROCKII = target: T1, ROCKII (Rattus norvegicus, UniProt Q62868); test: ROCKII inhibition at a single concentration of 10 μM (selectivity histogram, Table 3); assay type: biochemical; settings: for Percent Rock inhibition at 10 micromolar: Table 3, compound at 10 micromolar
T1 construct: purchased Upstate Ltd. (United Kingdom)
Protocol: Compounds of this invention can be evaluated for kinase inhibition activity as solutions in 100% DMSO at a concentration of 10 μM added to GSK3β(h) and to ROCK-II(r) with ATP present at a concentration of 100 μM. Samples of compounds of this invention can be tested at 10 μM.
The data can be presented as relative ROCK kinase inhibition at a reference compound concentration of 3.5 uM and at 35 μM, wherein 0 signifies complete inhibition under the ATP concentration tested (100 μM). ROCK kinase activity is the opposite of ROCK kinase inhibition, and is compared with the GSKB kinase activity.
(§1) Experiments were done in duplicate. ATP was present at 100 μM in the assay.
(§2) The values were expressed in a percentage of inhibition of each kinase. Experiments were done in duplicate. ATP was present at 100 μM in the assay.
(§3) Percent net neurite outgrowth at 35 micromolar concentrations are presented in Table 3 together with percent Rock inhibition at 10 micromolar for three compounds designated BA-1043, BA-1049, and BA-1050. […] It should be noted that percent Rock activity is equal to 100% minus percent Rock inhibition.

NG108 cells = test: Bioassay of neurite outgrowth in NG108 cells on plastic; assay type: cell-based; settings: compound at 35 micromolar
Excerpt: as §3

PRK2 = PRK2 (Homo sapiens, UniProt Q16513); settings: FIG. 5; compound at 10 μM; ATP 100 μM; duplicate
Protocol: Samples can also be tested at 10 μM against CDK5/p35(h), JNK1α1(h), MAPK1(h), PKA(b), PKCα(h), PRK2(h), ROCK-II(r), […], PKBα(h), and Fyn(h) with ATP at 100 μM.
as §2

ROCKI = ROCKI (Homo sapiens, UniProt Q13464); settings: ATP 100 μM, duplicate
Protocol: as §1, §2

HUVEC cells [1] = test: Endothelial cell migration, Boyden chamber with VEGF; assay type: cell-based, human; settings: 50 μM; 20 h; 10 ng/mL VEGF; fibronectin-coated transwells
Protocol: A common assay uses Boyden or Transwell chambers, a compartmentalized cell cultures system. Cells are plated in the upper compartment of the Transwell chamber, and the ability of a compound under evaluation to block cell migration through, for example the pores of a Fluoroblok membrane, to the bottom compartment is measured. […] Typically, a chemoattractant is added to the bottom well or compartment. In the case of endothelial cells, a useful chemoattractant is vascular endothelial growth factor (VEGF). […] Experiments can be performed in 24-well plates (individual insert or multiwell insert) or in 96-multiwell insert plates with appropriate correction for volume and cell density. […] Following incubation with the cell dye, fluorescence from invaded cells is read in a fluorescence plate reader with bottom reading capabilities at excitation/emission wavelengths of 485/530 nm without further manipulation. Only those labeled cells that have migrated through the pores of the Fluoroblok membrane will be detected.
The data may be expressed as either fluorescent units (FU) or as “fold migration”, i.e., the FU value of the cells migrating through the fibronectin coated insert membrane in response to a chemoattractant with inhibitor relative to the FU value of a control, i.e., without inhibitor. […]

HUVEC cells [2] = test: HUVEC capillary tube formation on ECMatrix; assay type: cell-based, human; settings: for relative amount of tube formation: 15,000 HUVEC cells on ECMatrix, 6-8 h
Excerpt: HUVEC cells will form capillary tubes when plated on protein substrates composed of proteins found in the extracellular matrix. Typical substrates useful for experiments with HUVEC cells are Matrigel, fibronectin or collagen. Matrigel is composed of several proteins that make up the extracellular matrix. Extracelluar matrix substrates can be plated in tissue culture dishes as 3-dimensional cell culture substrates. Another reagent that can be used as a substrate is ECMatrix™ (Chemicon International, Temecula, Calif.), a reconstituted basement membrane matrix of proteins derived from the Engelbreth Holm-Swarm (EHS) mouse tumor. This substrate gels rapidly at 22-35° C. Thus, ECMatrix™ is thawed overnight on ice or in +4° C. A 96-well plate is pre-chilled, and 100μl of the ECMatrix solution is added to each well. The plate is incubated at 37° C. for at least one hour to allow the matrix solution to solidify. The HUVEC cells are harvested and resuspended in a standard cell growth media supplemented with endothelial cell growth supplements. The presence of serum (0.5-10%) is optional. EGM (endothelial cell growth media) can be used. The HUVEC cells are plated at a density of 5×10^3 to 1×10^4 cells per well onto the surface of the polymerized ECMatrix™, and then incubated overnight in a tissue-culture incubator. Cellular network structures are fully developed by 12 to 18 h, with the first signs apparent after 5-6 h. After 24 h, the cells begin to undergo apoptosis. To study the effect of anti-angiogenic factors, they can be added at the time of cell plating. Optional tissue culture vary depending on the cell type, age, and media growth conditions. The tubes are inspected under an inverted light microscope at 40×-200× magnification. Since there is a lack of contrast of the cellular networks, the cultures can be stained with any of the common cell staining procedures such as Diff-Quick or Wright-Giemsa or crystal-violet. The total capillary tube length measurement method is used to quantify the results. The total length of all the capillary tubes in several (3-10) view-fields is measured by Northern Eclipse software.
Photos are representative of 5 separate experiments.
Tranilast is used as a positive control. For this experiment, 15,000 HUVEC cells were plated on ECMatrix™ and incubated for 6-8 h alone before quantification. Results are presented as mean± SEM for one experiment analyzed in duplicate. […] It is used as a positive control.

human plasma proteins = settings: for Bound (%) / Unbound (%): equilibrium dialysis 24 h, 37° C.
Excerpt: Plasma or serum protein binding assays using the equilibrium dialysis method are used to determine drug availability. Equilibrium dialysis studies using a 96-well microplate format or using conventional 2-chambered Teflon dialysis cells can be used to determine plasma or serum binding, and LC/MS/MS analysis is used for test compound quantification. The Teflon dialysis cell system is commonly used to determine the time to reach equilibrium, the fraction of a compound bound and unbound to plasma proteins and the effect of concentration on the extent of binding. Test compound quantification is performed by HPLC or LC/MS/MS analysis.
To perform equilibrium dialysis the following procedures can be used. To 0.990 mL of thawed plasma (37° C.), a 10 μL aliquot of the stock solutions is added for test compound concentrations of 35 μM. An appropriate volume of buffer (Dulbecco's phosphate buffered saline, pH 7.4) is spiked with each test compound at a concentration of 35 μM. Duplicate aliquots (130 μL) of each spiked plasma and buffer solution are collected prior to dialysis into labeled 1.5 mL polypropylene tubes and stored frozen at −40° C. […] Equilibrium dialysis is performed in a 96-well Teflon dialysis unit. Each well of the unit consists of two chambers separated by a vertically aligned dialysis membrane (regenerated cellulose) with a molecular weight cut-off of 12-14 KDa. The equilibrium dialysis membranes are first pre-soaked in deionized water for 30 min, then soaked in 20% ethanol for 20 min, followed by rinsing twice with deionized water. The equilibrium dialysis apparatus is assembled according to the manufacturer's directions. One chamber of each well is filled with 150 μL of blank buffer (to prevent membrane dehydration). Aliquots (150 μL) of spiked plasma or spiked buffer are added to the opposing chamber in each well. The top of the plate is sealed with an adhesive sealing film to prevent evaporation and to maintain constant pH during incubation. All dialysis experiments with the test compounds and standards are assessed using duplicate samples. The dialysis apparatus is incubated at 37° C. in an orbital shaker/incubator (Lab-Line Enviro) samples are collected following 24 hours of incubation. Samples containing the test compounds are stored frozen at −70° C. until analysis. Samples (100 μL) containing the radiolabels are added and mixed by vortex. The disintegrations per minute (dpm) in each vial are measured with a liquid scintillation counter. The fraction of each test compound and standard unbound (fu) to human serum proteins is calculated according to the following equation:
[formula] wherein Cbuffer and Cplasma represent the concentration of the compound measured in the buffer and plasma chambers, respectively, following dialysis. The fraction bound (fb) to the plasma proteins is determined as: 1−fu.

MSK1 = MSK1 (Homo sapiens, UniProt O75582); settings: FIG. 5; compound at 10 μM; ATP 100 μM; duplicate
Protocol: as §2

ROCK-II(h) = ROCK-II(h) (Homo sapiens, UniProt O75116); settings: for % Control (single replicate) / Activity (% Control): ATP 100 micromolar; for % Control (single replicate): individual replicates; for Activity (% Control): mean of duplicate
Protocol: ROCK II (purchased from Upstate, Lake Placid, N.Y.) activity is assayed in 20 mM MOPS, pH 7.2, 25 mM β-glycerophosphate, 5 mM EGTA, 1 mM sodium orthovanadate, 1 mM dithiothreitol with dephosphorylated myelin basic protein (MBP, 0.2 mg/ml) as substrate with or without addition of a reference Rho kinase inhibitor. Activity assay reactions are performed for 30 min at 30° C. in 50 μl volumes using radiolabeled [32P] ATP (from Perkin-Elmer). The concentrations of ATP and magnesium chloride are 100 μM and 75 mM respectively. Assay reactions are initiated by adding Mg2+/ATP to each reaction mixture and are terminated by spotting 40 μl of each reaction mixture onto phosphocellulose paper (P81 paper, Whatman), followed by washes in 0.75% phosphoric acid to remove ATP followed by drying. The spotted paper is placed in scintillation cocktail and counted to measure 32P incorporation. Radioactivity is measured using a scintillation counter. Percent activity for a particular concentration of inhibitor is calculated as 100*(a−b)/(c−b), where a=cpm (enzyme+inhibitor), b=cpm (autophosphorylation of substrate and kinase) and c=cpm (enzyme−inhibitor). A dose-response chart is prepared for each inhibitor compound evaluated, then an IC50 (inhibitor concentration at 50% inhibition) determination is made as a measure of the potency of the compound as an inhibitor of Rho kinase. A plot of the log of concentration of test inhibitor compound (x axis) and the percent inhibition of kinase activity (y axis) is prepared. […] Experiments are done in duplicate or triplicate. ROCK II and dephosphorylated myelin basic protein (MBP) can be purchased from Upstate (Lake Placid, N.Y.). ATP is from Boehringer Mannheim and [γ-32P] ATP is from Perkin-Elmer. ROCK-II(h) is human ROCK-II.
Kinase inhibitors frequently compete with ATP binding and are ATP-competitive. Drug concentration required for 50% inhibition (IC50) depends on the concentration of ATP used in the assays.
An IC50 value for a compound of this invention can be determined from a plot of concentration of compound of this invention versus kinase activity of ROCK-II(h). The IC50 value for a compound of this invention can be expressed in units of micromolar, nanomolar, picomolar, and the like.
In the table, the concentration of the rho kinase inhibitor is micromolar, CPM is counts per minute, and SD is standard deviation. The rho kinase inhibitor activity was tested in duplicate. In each case, the kinase activity is expressed as a percentage of that in control incubations. IC50 values were derived by PRISM at Upstate. ATP concentration was 100 micromolar.

HEC-1B cells = settings: 72 hours incubation; different concentrations; Alamar Blue
Protocol: For this assay, cells are thawed and passaged at least one time before the experiment. Cells are grown in a culture dish in media supplemented with serum and supplements appropriate for the test cell line. When they reach logarithmic growth, the cells are trypsinized to detach them from the culture dish and are counted. The cell pellet is resuspended and adjusted to 2-5×10^4 cells/ml. A 96-well microplate is used for the experiment and cells are plated at a density of 1000 to 5000 cells/well in 100 μL of growth media. The seeding density is noted to ensure that the cells in the control wells are not overgrown after the total incubation time. […] At the end of the incubation period, the fluorescence intensity is read with a 96-well microplate reader (excitation 530-560 nm; emission 590 nm), with bottom reading. The fluorescence generated in the AlamarBlue™ assay can be stopped and stabilized by the addition of 3% SDS. […]
For each concentration of test article, a % growth is calculated using the following equation, wherein • T0=fluorescence units at the time of test article addition (time 0) • C=fluorescence units for control (no test article) • Ti=fluorescence unit for test article (different dilution)
Cadmium sulfate hydrate (CAD) was used as a positive control. Following treatment, the rate of proliferation was measured using the Alamar Blue assay.

Caco-2 cells = settings: for B − A/A − B Papp ratio: Caco-2 monolayer
Protocol: After incubation, samples are taken from the apical and basolateral compartment and the concentration of the test compound is determined by LCMS (liquid chromatography/mass spectroscopy).
Stock cultures are sub-cultured every 7 days when cells have reached 80-90% confluency. Studies are conducted with Caco-2 cells, used between passage 21 to 40. Cells are plated on Transwell™ inserts at a density of 1×10^4 cells/well in 24-well culture plates. Cells are incubated at 37° C. under 5% CO2 atmosphere, and media (MEM Earles medium containing 10% FBS, 0.1 mM non-essential amino acids and 1 mM sodium pyruvate) are changed 3 times per week. Cells are used for permeability studies between 20 to 22 days after seeding. On the day of the assay, cell monolayers are washed 3 times. Each wash consists of aspirating liquid from the apical (A) and basolateral (B) sides, and adding 0.5 and 1 mL, respectively, of fresh Dulbecco's phosphate-buffered saline with Mg^2+ and Ca^2+, pH 7.4 (PBS). After the final wash, a volt-ohm-meter is used to determine the trans-epithelial electrical resistance (TEER), a measure of the integrity of the monolayer. Cells are not be used if the TEER values are less than 200 ohms/cm^2. Working solutions of the test compounds are prepared in PBS. […] For each test compound and standard, apical to basolateral (A to B) and basolateral to apical (B to A) transport is measured. The final volume on the basolateral side is 1 mL; the final volume on the apical side is 0.3 mL. The test compound working solution or radiolabeled standard solution is added to the ‘donor’ side. Blank buffer is added to the ‘acceptor’ side. […] The permeability of each compound and control is measured by sampling 200μL of medium from the acceptor compartment at time zero and following 60 minutes of incubation. […] A 3 mL aliquot of liquid scintillant is added to the vials, and disintegrations per minute (dpm) are determined in a liquid scintillation counter. […] The permeability of Lucifer Yellow is measured by sampling 100 μL of medium from the basolateral compartment following 60 minutes of incubation. […]

[3] = test system: Caki cells (human renal cancer line) subcutaneous tumors; settings: 50 μL PBS with 40 μM E-23a injected into tumor every day for two weeks; 6 mice; vehicle control 304%
Protocol: An in vivo model to test anti-proliferative activity of test compounds is a subcutaneous (s.c.) tumor model. In this model, human cancer cells are seeded into mice by a subcutaneous injection. Typically immune-compromised mouse cell lines are used, such as CD-1 nude mice, to prevent a graft rejection response. The test compound is administered as a formulation in a pharmaceutically acceptable vehicle suitable for injection use, such as isotonic phosphate buffered saline (PBS), by injection into the tumor. Different dosing schedules can be tested and compared with mice receiving injection of vehicle control. Before implantation into an animal, tumor cells are expanded in their specific tissue culture medium. Medium is changed 2 to 3 times per week. […] The tumor growth is monitored twice a week. Tumor volume is determined with a digital caliper and calculated using the formula: width^2×length×0.5. The length is taken at the basis of the tumors between the two most distant points of the tumor mass, whereas the width is measured right-angled to the length. […] Tumor volume and animal body weight are recorded twice a week.
Caki cells, which are a human renal cancer line were grown in tissue culture. […] Tumors were evaluated after 2 weeks of treatment after the final injection.

[4] = patients treated for stroke; cited from earlier work

Sequence of ROCK-II(h) (O75116 whole entry): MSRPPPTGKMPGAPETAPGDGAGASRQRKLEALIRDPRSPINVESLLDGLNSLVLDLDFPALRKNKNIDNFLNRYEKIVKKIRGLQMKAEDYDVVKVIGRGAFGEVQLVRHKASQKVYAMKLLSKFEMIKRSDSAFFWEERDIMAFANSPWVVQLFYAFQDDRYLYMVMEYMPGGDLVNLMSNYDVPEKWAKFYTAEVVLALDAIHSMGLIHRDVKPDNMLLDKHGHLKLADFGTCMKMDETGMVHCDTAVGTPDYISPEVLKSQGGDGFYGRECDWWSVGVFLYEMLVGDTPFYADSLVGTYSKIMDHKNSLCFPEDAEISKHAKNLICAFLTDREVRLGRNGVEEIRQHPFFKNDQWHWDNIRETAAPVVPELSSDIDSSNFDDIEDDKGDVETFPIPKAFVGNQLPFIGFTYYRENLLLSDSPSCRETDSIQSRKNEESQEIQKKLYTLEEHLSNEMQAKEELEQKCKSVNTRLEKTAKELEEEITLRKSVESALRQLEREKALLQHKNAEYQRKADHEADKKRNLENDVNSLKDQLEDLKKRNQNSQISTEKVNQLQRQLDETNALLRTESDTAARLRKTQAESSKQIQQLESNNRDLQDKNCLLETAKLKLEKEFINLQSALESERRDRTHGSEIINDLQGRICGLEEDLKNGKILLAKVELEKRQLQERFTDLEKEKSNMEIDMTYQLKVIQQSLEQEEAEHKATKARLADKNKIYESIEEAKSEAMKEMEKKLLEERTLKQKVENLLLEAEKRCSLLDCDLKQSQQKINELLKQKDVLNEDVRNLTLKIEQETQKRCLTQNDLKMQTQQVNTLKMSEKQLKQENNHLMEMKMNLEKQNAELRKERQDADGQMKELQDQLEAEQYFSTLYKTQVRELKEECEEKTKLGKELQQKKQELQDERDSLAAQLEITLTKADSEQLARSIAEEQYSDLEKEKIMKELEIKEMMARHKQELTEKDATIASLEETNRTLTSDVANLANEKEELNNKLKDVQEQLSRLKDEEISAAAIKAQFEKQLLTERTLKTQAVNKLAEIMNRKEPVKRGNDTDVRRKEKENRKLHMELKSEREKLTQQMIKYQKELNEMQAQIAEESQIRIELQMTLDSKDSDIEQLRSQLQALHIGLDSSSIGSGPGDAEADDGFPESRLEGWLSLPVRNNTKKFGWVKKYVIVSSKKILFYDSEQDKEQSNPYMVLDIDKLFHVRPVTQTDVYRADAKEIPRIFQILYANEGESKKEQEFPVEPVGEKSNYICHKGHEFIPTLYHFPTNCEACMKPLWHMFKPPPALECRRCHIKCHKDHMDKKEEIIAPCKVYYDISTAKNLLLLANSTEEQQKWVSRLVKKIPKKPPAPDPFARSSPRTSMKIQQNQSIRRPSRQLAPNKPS
T1 sequence (Q62868 whole entry): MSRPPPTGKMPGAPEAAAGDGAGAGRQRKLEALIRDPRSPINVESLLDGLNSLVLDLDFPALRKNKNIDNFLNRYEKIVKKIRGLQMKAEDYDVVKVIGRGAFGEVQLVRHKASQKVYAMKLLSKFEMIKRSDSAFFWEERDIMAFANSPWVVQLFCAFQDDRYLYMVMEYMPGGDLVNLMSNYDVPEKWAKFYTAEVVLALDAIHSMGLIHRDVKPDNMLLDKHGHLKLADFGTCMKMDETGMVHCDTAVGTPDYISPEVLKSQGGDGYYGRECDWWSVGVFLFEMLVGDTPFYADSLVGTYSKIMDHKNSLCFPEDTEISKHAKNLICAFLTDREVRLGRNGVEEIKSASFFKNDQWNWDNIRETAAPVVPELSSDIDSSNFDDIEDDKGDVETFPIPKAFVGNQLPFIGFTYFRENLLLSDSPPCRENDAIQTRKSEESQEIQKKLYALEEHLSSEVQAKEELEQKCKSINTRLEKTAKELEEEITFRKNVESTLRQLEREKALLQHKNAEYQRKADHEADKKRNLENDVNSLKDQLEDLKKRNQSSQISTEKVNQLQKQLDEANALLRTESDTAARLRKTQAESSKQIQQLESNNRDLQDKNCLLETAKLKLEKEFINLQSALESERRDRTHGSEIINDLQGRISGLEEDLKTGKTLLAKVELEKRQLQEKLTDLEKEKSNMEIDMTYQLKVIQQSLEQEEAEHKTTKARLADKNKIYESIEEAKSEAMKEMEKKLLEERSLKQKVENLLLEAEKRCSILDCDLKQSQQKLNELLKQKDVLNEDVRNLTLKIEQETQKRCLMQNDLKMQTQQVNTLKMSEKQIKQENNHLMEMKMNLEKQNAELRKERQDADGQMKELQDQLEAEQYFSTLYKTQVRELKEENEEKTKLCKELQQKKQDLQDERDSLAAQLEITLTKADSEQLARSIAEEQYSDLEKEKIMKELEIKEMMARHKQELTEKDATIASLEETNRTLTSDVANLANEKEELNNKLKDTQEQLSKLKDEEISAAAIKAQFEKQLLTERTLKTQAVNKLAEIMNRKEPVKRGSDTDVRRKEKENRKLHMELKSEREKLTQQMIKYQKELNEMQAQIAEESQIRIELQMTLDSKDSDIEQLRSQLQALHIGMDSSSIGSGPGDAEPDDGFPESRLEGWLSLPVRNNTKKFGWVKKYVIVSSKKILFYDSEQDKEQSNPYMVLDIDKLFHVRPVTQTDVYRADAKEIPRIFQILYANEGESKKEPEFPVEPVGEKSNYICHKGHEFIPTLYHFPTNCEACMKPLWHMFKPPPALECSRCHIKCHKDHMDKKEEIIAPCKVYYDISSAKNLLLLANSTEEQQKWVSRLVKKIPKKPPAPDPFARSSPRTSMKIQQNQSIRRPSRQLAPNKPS
Sequence of ROCKI (Q13464 whole entry): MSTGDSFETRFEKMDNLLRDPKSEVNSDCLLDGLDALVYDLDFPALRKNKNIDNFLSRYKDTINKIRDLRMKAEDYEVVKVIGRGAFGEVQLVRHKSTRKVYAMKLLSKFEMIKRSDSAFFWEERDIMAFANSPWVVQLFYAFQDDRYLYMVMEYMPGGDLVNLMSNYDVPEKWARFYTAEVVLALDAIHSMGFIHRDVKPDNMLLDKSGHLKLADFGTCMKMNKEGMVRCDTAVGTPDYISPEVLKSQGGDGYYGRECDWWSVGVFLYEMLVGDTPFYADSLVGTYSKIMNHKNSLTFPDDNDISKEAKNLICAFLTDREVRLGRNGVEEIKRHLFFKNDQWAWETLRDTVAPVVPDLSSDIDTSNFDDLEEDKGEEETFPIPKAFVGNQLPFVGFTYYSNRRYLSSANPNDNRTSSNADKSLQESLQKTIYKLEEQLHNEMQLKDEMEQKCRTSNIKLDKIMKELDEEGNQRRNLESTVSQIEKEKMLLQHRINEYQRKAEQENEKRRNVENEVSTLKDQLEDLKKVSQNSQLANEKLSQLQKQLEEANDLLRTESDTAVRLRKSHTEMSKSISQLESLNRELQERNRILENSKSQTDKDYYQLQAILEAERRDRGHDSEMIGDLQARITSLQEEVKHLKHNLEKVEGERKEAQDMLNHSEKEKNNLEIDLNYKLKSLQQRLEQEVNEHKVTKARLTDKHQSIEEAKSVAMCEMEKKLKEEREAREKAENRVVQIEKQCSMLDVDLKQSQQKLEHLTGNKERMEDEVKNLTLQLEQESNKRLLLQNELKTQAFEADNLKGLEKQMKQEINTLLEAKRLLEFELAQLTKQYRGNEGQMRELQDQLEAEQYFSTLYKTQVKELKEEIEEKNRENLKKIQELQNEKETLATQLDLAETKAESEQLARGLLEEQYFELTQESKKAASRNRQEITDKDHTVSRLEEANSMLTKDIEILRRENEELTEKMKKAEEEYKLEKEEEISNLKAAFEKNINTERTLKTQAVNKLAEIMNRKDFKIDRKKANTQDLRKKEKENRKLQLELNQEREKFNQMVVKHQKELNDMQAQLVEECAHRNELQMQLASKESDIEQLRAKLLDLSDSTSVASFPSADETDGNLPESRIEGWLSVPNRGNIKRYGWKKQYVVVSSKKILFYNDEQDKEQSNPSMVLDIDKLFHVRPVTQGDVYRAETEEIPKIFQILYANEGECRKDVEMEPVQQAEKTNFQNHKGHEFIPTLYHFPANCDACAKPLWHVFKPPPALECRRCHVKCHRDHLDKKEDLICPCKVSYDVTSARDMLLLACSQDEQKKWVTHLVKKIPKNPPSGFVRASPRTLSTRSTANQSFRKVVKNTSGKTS
Sequence of PRK2 (Q16513 whole entry): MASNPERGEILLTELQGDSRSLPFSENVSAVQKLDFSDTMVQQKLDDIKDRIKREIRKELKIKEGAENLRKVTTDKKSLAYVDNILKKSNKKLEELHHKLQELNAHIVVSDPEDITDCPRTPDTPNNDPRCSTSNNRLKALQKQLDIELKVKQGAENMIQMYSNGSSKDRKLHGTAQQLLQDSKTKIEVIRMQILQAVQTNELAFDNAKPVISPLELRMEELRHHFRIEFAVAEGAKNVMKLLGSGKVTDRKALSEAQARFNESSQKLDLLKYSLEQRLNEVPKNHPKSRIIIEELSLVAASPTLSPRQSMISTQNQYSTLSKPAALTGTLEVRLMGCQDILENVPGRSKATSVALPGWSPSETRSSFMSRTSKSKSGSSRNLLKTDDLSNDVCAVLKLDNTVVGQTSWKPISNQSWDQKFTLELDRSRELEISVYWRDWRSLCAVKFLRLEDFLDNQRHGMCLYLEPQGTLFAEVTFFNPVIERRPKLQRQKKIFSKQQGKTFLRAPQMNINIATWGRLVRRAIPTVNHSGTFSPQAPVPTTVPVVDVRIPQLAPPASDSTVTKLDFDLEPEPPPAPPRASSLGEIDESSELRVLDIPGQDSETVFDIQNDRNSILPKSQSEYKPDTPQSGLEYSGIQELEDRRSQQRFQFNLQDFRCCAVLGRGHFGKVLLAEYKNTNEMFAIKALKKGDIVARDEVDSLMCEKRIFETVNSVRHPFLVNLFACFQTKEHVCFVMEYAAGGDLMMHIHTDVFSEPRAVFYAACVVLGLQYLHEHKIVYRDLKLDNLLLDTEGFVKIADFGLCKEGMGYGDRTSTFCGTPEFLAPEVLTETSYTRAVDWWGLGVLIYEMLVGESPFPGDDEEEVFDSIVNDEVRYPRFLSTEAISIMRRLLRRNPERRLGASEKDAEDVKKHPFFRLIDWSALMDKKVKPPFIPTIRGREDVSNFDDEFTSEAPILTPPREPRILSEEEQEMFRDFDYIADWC

CCCC(N)C1CCN(S(=O)(=O)c2cccc3cnccc23)CC1.Cl.Cl (racemic) [BA-1050, (R,S)-N-(5″-isoquinolinesulfonyl)-4-[butan-1′-amino]piperidine dihydrochloride]
Percent Rock inhibition at 10 micromolar (ROCKII): 79%
Percent Net Neurite Outgrowth at 35 micromolar (NG108 cells): 20.2%

CC(N)C1CCN(S(=O)(=O)c2cccc3cnccc23)CC1.Cl.Cl (racemic) [E-23a, (R,S)-N-(5″-isoquinolinesulfonyl)-4-[ethan-1′-amino]piperidine dihydrochloride]
percentage of inhibition of PRK2 (PRK2): 52%
percentage of inhibition of ROCK I (ROCKI; FIG. 5, compound at 10 μM): 31%
IC50 (ROCKI; read-out: IC50, inhibition of ROCKI): 20.6 µM
migration, % of the amount observed with Ctl+VEGF (HUVEC cells [1]): approximately 40%
relative amount of tube formation (HUVEC cells [2]; 10 μM): approximately 40 % relative to control
relative amount of tube formation (HUVEC cells [2]; 50 μM): approximately 35 % relative to control
HUVEC tube formation relative to control (in words) (HUVEC cells [2]; E-23a 10 and 50 μM): substantially reduced
availability in plasma (in words) (human plasma proteins; equilibrium dialysis): relatively available in the unbound form
Bound (%) (human plasma proteins): 7.26%
Unbound (%) (human plasma proteins): 92.7%
percentage of inhibition of ROCKII (ROCKII; FIG. 5, compound at 10 μM, ATP 100 μM, duplicate): 83%
Percent Rock inhibition at 10 micromolar (ROCKII): 97%
percentage of inhibition of MSK1 (MSK1): 43%
% Control (single replicate) (ROCK-II(h); BA-1049 0.01 μM, dihydrochloride): 96 % Control and 104 % Control
Activity (% Control) (ROCK-II(h); BA-1049 0.01 μM): 100 % Control
% Control (single replicate) (ROCK-II(h); BA-1049 0.03 μM, dihydrochloride): 109 % Control and 86 % Control
Activity (% Control) (ROCK-II(h); BA-1049 0.03 μM): 98 % Control
% Control (single replicate) (ROCK-II(h); BA-1049 0.1 μM, dihydrochloride): 86 % Control and 102 % Control
Activity (% Control) (ROCK-II(h); BA-1049 0.1 μM): 94 % Control
% Control (single replicate) (ROCK-II(h); BA-1049 0.3 μM, dihydrochloride): 62 % Control and 74 % Control
Activity (% Control) (ROCK-II(h); BA-1049 0.3 μM): 68 % Control
% Control (single replicate) (ROCK-II(h); BA-1049 1 μM, dihydrochloride): 45 % Control and 50 % Control
Activity (% Control) (ROCK-II(h); BA-1049 1 μM): 48 % Control
% Control (single replicate) (ROCK-II(h); BA-1049 3 μM, dihydrochloride): 25 % Control and 27 % Control
Activity (% Control) (ROCK-II(h); BA-1049 3 μM): 26 % Control
% Control (single replicate) (ROCK-II(h); BA-1049 10 μM, dihydrochloride): 8 % Control and 16 % Control
Activity (% Control) (ROCK-II(h); BA-1049 10 μM): 12 % Control
% Control (single replicate) (ROCK-II(h); BA-1049 30 μM): 4 % Control
Activity (% Control) (ROCK-II(h); BA-1049 30 μM): 4 % Control
% Control (single replicate) (ROCK-II(h); BA-1049 100 μM, dihydrochloride): 0 % Control and 5 % Control
Activity (% Control) (ROCK-II(h); BA-1049 100 μM): 3 % Control
IC50 (ROCK-II(h); read-out: IC50, inhibition of ROCK-II(h), ATP 100 μM, duplicate, derived by PRISM): 0.791 µM
Percent Net Neurite Outgrowth at 35 micromolar (NG108 cells): 39.0%
proliferation of HEC-1B cells (in words) (HEC-1B cells): reduced proliferation
B − A/A − B Papp ratio (Caco-2 cells): 1.31
permeability (in words) (Caco-2 cells; Caco-2 permeability assay): good permeability
mean tumor size increase, % of initial tumor volume [3]: approximately 156 % of initial tumor volume

CC(C)NC[C@H](O)COc1cccc2ccccc12 [(S)-Propranolol, reference compound]
Bound (%) (human plasma proteins): 91.3%
Unbound (%) (human plasma proteins): 8.67%

CN(N)C1CCN(S(=O)(=O)c2cccc3cnccc23)CC1.Cl.Cl [BA-1043, N-(5′″-isoquinolinesulfonyl)-4-[N′-(1′-methyl)hydrazino]piperidine dihydrochloride]
Percent Rock inhibition at 10 micromolar (ROCKII): 61%
Percent Net Neurite Outgrowth at 35 micromolar (NG108 cells): 15.2%

CC1=NN(c2ccccc2)C(=O)C1 [Radicut, 3-methyl-1-phenyl-2-pyrazoline-5-one]
adverse effect in clinical use (in words) [4]: kidney toxicity

COc1ccc(C=CC(=O)Nc2ccccc2C(=O)O)cc1OC [Tranilast, N-(3′,4′-dimethoxycinnamoyl)anthranilic acid, reference compound]
migration, % of the amount observed with Ctl+VEGF (HUVEC cells [1]): approximately 30%
relative amount of tube formation (HUVEC cells [2]; 10 μg/mL): approximately 35 % relative to control
relative amount of tube formation (HUVEC cells [2]; 50 μg/mL): approximately 30 % relative to control

OC[C@@H](O)[C@@H](O)[C@H](O)[C@H](O)CO [[^3H]-Mannitol, reference compound]
B − A/A − B Papp ratio (Caco-2 cells): 0.81
